# Assays:
# Assay type in all cases: functional
# [1] = system: Enterocloster clostridioformis; assay: Antimicrobial activity in Clostridium clostridioforme by CLSI agar dilution method
# [2] = system: Prevotella baroniae; assay: Antimicrobial activity in Prevotella baroniae by CLSI agar dilution method; settings: Segatella baroniae
# [3] = system: Fusobacterium necrophorum; assay: Antimicrobial activity in Fusobacterium necrophorum by CLSI agar dilution method
# [4] = system: Prevotella disiens; assay: Antimicrobial activity in Prevotella disiens by CLSI agar dilution method
# [5] = system: Prevotella melaninogenica; assay: Antimicrobial activity in Prevotella melaninogenica by CLSI agar dilution method
# [6] = system: Bacteroides uniformis; assay: Antimicrobial activity in Bacteroides uniformis by CLSI agar dilution method
# [7] = system: Lactobacillus; assay: Antimicrobial activity in Lactobacillus by CLSI agar dilution method
# [8] = system: Clostridium butyricum; assay: Antimicrobial activity in Clostridium butyricum by CLSI agar dilution method
# [9] = system: Finegoldia magna; assay: Antimicrobial activity in Finegoldia magna by CLSI agar dilution method
# [10] = system: Bifidobacterium; assay: Antimicrobial activity in Bifidobacterium by CLSI agar dilution method
# [11] = system: Thomasclavelia ramosa; assay: Antimicrobial activity in Clostridium ramosum by CLSI agar dilution method
# [12] = system: Prevotella intermedia; assay: Antimicrobial activity in Prevotella intermedia by CLSI agar dilution method
# [13] = system: [Clostridium] innocuum; assay: Antimicrobial activity in Clostridium innocuum by CLSI agar dilution method
# [14] = system: Parvimonas micra; assay: Antimicrobial activity in Micromonas micros by CLSI agar dilution method
# [15] = system: Prevotella corporis; assay: Antimicrobial activity in Prevotella corporis by CLSI agar dilution method
# [16] = system: Bacteroides ovatus; assay: Antimicrobial activity in Bacteroides ovatus by CLSI agar dilution method
# [17] = system: Prevotella bergensis; assay: Antimicrobial activity in Prevotella bergensis by CLSI agar dilution method; settings: Hallella bergensis
# [18] = system: Clostridioides difficile; assay: Antimicrobial activity in Clostridium difficile by CLSI agar dilution method
# [19] = system: Anaerococcus prevotii; assay: Antimicrobial activity in Anaerococcus prevotii by CLSI agar dilution method
# [20] = system: Clostridium cadaveris; assay: Antimicrobial activity in Clostridium cadaveris by CLSI agar dilution method
# [21] = system: Clostridium tertium; assay: Antimicrobial activity in Clostridium tertium by CLSI agar dilution method
# [22] = system: Prevotella nigrescens; assay: Antimicrobial activity in Prevotella nigrescens by CLSI agar dilution method
# [23] = system: Porphyromonas asaccharolytica; assay: Antimicrobial activity in Porphyromonas asaccharolytica by CLSI agar dilution method
# [24] = system: Bacteroides thetaiotaomicron; assay: Antimicrobial activity in Bacteroides thetaiotaomicron by CLSI agar dilution method
# [25] = system: Hoylesella loescheii; assay: Antimicrobial activity in Prevotella loescheii by CLSI agar dilution method
# [26] = system: Bacteroides stercoris; assay: Antimicrobial activity in Bacteroides stercoris by CLSI agar dilution method
# [27] = system: Prevotella bivia; assay: Antimicrobial activity in Prevotella bivia by CLSI agar dilution method
# [28] = system: Porphyromonas gingivalis; assay: Antimicrobial activity in Porphyromonas gingivalis by CLSI agar dilution method
# [29] = system: Prevotella buccae; assay: Antimicrobial activity in Prevotella buccae by CLSI agar dilution method; settings: Segatella buccae
# [30] = system: Fusobacterium nucleatum; assay: Antimicrobial activity in Fusobacterium nucleatum by CLSI agar dilution method
# [31] = system: Hoylesella oralis; assay: Antimicrobial activity in Prevotella oralis group by CLSI agar dilution method
# [32] = system: Paraclostridium bifermentans; assay: Antimicrobial activity in Clostridium bifermentans by CLSI agar dilution method
# [33] = system: Parabacteroides distasonis; assay: Antimicrobial activity in Bacteroides distasonis by CLSI agar dilution method
# [34] = system: Eggerthella lenta; assay: Antimicrobial activity in Eggerthella lenta by CLSI agar dilution method
# [35] = system: Tissierella praeacuta; assay: Antimicrobial activity in Clostridium hastiforme by CLSI agar dilution method
# [36] = system: Clostridium perfringens; assay: Antimicrobial activity in Clostridium perfringens by CLSI agar dilution method
# [37] = system: Cutibacterium acnes; assay: Antimicrobial activity in Propionibacterium acnes by CLSI agar dilution method
# [38] = system: Clostridium sp.; assay: Antimicrobial activity in Clostridium sp. by CLSI agar dilution method
# [39] = system: Prevotella sp.; assay: Antimicrobial activity in Prevotella sp.by CLSI agar dilution method
# [40] = system: Phocaeicola vulgatus; assay: Antimicrobial activity in Bacteroides vulgatus by CLSI agar dilution method
# [41] = system: Bacteroides fragilis; assay: Antimicrobial activity in Bacteroides fragilis by CLSI agar dilution method
# [42] = system: Peptoniphilus asaccharolyticus; assay: Antimicrobial activity in Peptoniphilus asaccharolyticus by CLSI agar dilution method
# [43] = system: Prevotella veroralis; assay: Antimicrobial activity in Prevotella veroralis by CLSI agar dilution method
# [44] = system: Peptostreptococcus anaerobius; assay: Antimicrobial activity in Peptostreptococcus anaerobius by CLSI agar dilution method
# [45] = system: Fusobacterium mortiferum; assay: Antimicrobial activity in Fusobacterium mortiferum by CLSI agar dilution method
# [46] = system: Paeniclostridium sordellii; assay: Antimicrobial activity in Clostridium sordellii by CLSI agar dilution method; settings: Paraclostridium sordellii
# [47] = system: Fusobacterium varium; assay: Antimicrobial activity in Fusobacterium varium by CLSI agar dilution method
# [48] = system: Prevotella denticola; assay: Antimicrobial activity in Prevotella denticola by CLSI agar dilution method
# [49] = system: Anaerococcus tetradius; assay: Antimicrobial activity in Anaerococcus tetradius by CLSI agar dilution method
# [50] = system: Prevotella salivae; assay: Antimicrobial activity in Prevotella salivae by CLSI agar dilution method; settings: Segatella salivae
# [51] = system: Actinomyces; assay: Antimicrobial activity in Actinomyces by CLSI agar dilution method
smiles,measurement,setting,value
Cc1ncc([N+](=O)[O-])n1CCO [METRONIDAZOLE],MIC,[1],≤ 0.125 µg/mL
same,MIC,[2],0.5 µg/mL
same,MIC,[3],≤ 0.125 µg/mL
same,MIC50,[3],0.25 µg/mL
same,MIC,[4],1 µg/mL
same,MIC50,[4],1 µg/mL
same,MIC50,[5],0.5 µg/mL
same,MIC90,[5],1 µg/mL
same,MIC,[6],0.5 µg/mL
same,MIC50,[6],0.5 µg/mL
same,MIC,[7],> 16 µg/mL
same,MIC50,[7],> 16 µg/mL
same,MIC90,[7],16 µg/mL
same,MIC,[8],≤ 0.125 µg/mL
same,MIC50,[9],0.5 µg/mL
same,MIC90,[9],1 µg/mL
same,MIC50,[10],> 16 µg/mL
same,MIC90,[10],> 16 µg/mL
same,MIC,[11],1 µg/mL
same,MIC50,[12],0.5 µg/mL
same,MIC90,[12],1 µg/mL
same,MIC,[13],≤ 0.125 µg/mL
same,MIC50,[14],0.25 µg/mL
same,MIC90,[14],0.5 µg/mL
same,MIC,[15],≤ 0.125 µg/mL
same,MIC50,[15],0.5 µg/mL
same,MIC50,[16],1 µg/mL
same,MIC90,[16],1 µg/mL
same,MIC,[17],0.5 µg/mL
same,MIC50,[18],0.5 µg/mL
same,MIC90,[18],0.5 µg/mL
same,MIC,[19],1 µg/mL
same,MIC,[20],≤ 0.125 µg/mL
same,MIC,[21],0.5 µg/mL
same,MIC50,[21],1 µg/mL
same,MIC50,[22],0.5 µg/mL
same,MIC90,[22],1 µg/mL
same,MIC,[23],≤ 0.125 µg/mL
same,MIC,[24],1 µg/mL
same,MIC50,[24],1 µg/mL
same,MIC90,[24],2 µg/mL
same,MIC,[25],0.5 µg/mL
same,MIC,[26],1 µg/mL
same,MIC50,[26],1 µg/mL
same,MIC50,[27],2 µg/mL
same,MIC90,[27],4 µg/mL
same,MIC,[28],≤ 0.125 µg/mL
same,MIC50,[29],1 µg/mL
same,MIC90,[29],2 µg/mL
same,MIC,[30],≤ 0.125 µg/mL
same,MIC50,[30],≤ 0.125 µg/mL
same,MIC90,[30],0.5 µg/mL
same,MIC,[31],≤ 0.125 µg/mL
same,MIC,[32],0.25 µg/mL
same,MIC50,[33],1 µg/mL
same,MIC90,[33],1 µg/mL
same,MIC50,[34],0.5 µg/mL
same,MIC90,[34],0.5 µg/mL
same,MIC,[35],0.25 µg/mL
same,MIC50,[36],1 µg/mL
same,MIC90,[36],1 µg/mL
same,MIC,[37],> 16 µg/mL
same,MIC50,[37],> 16 µg/mL
same,MIC90,[37],> 16 µg/mL
same,MIC50,[38],1 µg/mL
same,MIC90,[38],1 µg/mL
same,MIC,[39],0.5 µg/mL
same,MIC50,[40],0.5 µg/mL
same,MIC90,[40],1 µg/mL
same,MIC50,[41],1 µg/mL
same,MIC90,[41],1 µg/mL
same,MIC,[42],≤ 0.125 µg/mL
same,MIC50,[42],1 µg/mL
same,MIC,[43],0.25 µg/mL
same,MIC50,[44],0.5 µg/mL
same,MIC90,[44],1 µg/mL
same,MIC50,[45],0.25 µg/mL
same,MIC90,[45],0.5 µg/mL
same,MIC,[46],1 µg/mL
same,MIC50,[47],0.25 µg/mL
same,MIC90,[47],0.5 µg/mL
same,MIC50,[48],0.5 µg/mL
same,MIC90,[48],1 µg/mL
same,MIC50,[49],1 µg/mL
same,MIC90,[49],1 µg/mL
same,MIC,[50],≤ 0.125 µg/mL
same,MIC,[51],> 1 µg/mL
same,MIC50,[51],> 16 µg/mL
